Measured values taken from patent US20060280787A1, “Pharmaceutical formulation of the tubulin inhibitor indibulin for oral administration with improved pharmacokinetic properties, and process for the manufacture thereof” (priority 2005, published 2006).

Key:
[1] = system: microtubules in tumor cells; assay: Polymerization of microtubules in tumor cells; format: cell-based
Description: (§1) Indibulin is a synthetic small molecule tubulin inhibitor with significant antitumor activity in vitro and in vivo. […] Furthermore, the molecule selectively blocks cell cycle progression at metaphase.

[2] = Bioavailability of pure Indibulin; format: in vivo
Description: (§2) Indibulin is obtained by chemical synthesis as a white crystalline powder. Its solubility in hydrophilic solvents is poor. […] Due to these properties, the bioavailability of pure Indibulin is very low, as is Indibulin's bioavailability in common pharmaceutical dosage forms, e.g., powder, granula, tablets or capsules.

[3] = Neurological symptoms in animal experiments; format: in vivo, animals
Description: (§3) In vitro, Indibulin exerts significant antitumor activity against a variety of malignancies (e.g., prostate, brain, breast, pancreas, and colon). […] Based on its mechanism of action, it is expected to target all types of solid tumors. […] Another advantage for further development is its easy synthesis, in contrast to other tubulin-inhibitory compounds.

[4] = Tolerability in preclinical experiments in rodents; format: in vivo; settings: highly effective doses
Description: as §3

[5] = Solubility of Indibulin in solvents; format: physicochemical
Description: as §2
However, these organic solvents cannot be used for application in humans due to their toxicity.

[6] = system: microtubules; assay: Polymerization of microtubules in a cell-free system; format: biochemical
Description: as §1

With `O=C(Nc1ccncc1)C(=O)c1cn(Cc2ccc(Cl)cc2)c2ccccc12` [Indibulin, N-(pyridine-4-yl)-[1-(4-chlorobenzyl)-indole-3-yl]glyoxylic acid amide] the polymerization of microtubules [1] was “inhibits polymerization of microtubules”, the bioavailability [2] was “very low” and the neurological symptoms [3] was “No neurological symptoms”. For the same compound, the tolerability [4] was “very well tolerated”, the “solubility in organic solvents” value ([5]; dimethylformamide, dimethylsulfoxide and N-methylpyrrolidone) was “sufficient solubility” and the “solubility in highly concentrated organic acids” value ([5]; roughly >50% w/v acetic acid or lactic acid) was “relatively good solvents”. The “solubility in hydrophilic solvents” value ([5]; water, methanol, ethanol or 2-propanol) was “practically insoluble” and the polymerization of microtubules [6] was “inhibits polymerization of microtubules”.
